Assay results as given in ChEMBL document CHEMBL6096628, “Discovery of a Highly Potent and Selective BRD9 PROTAC Degrader Based on E3 Binder Investigation for the Treatment of Hematological Tumors” (J Med Chem, 2024).
The source made the active and inactive calls. No cut-off for these calls is given here.

How the values were obtained:
[1] = Cmax in ICR mouse at 20 mg/kg, IG administered via gavage and measured after 24 hrs by LC-MS analysis; assay type: ADME, organism-based; settings: in vivo, po
[2] = Cytotoxicity against PBMC cells (unknown origin) assessed as inhibition of cell growth at 5000 nM incubated for 7 days by MTS reagent based assay; assay type: toxicity; settings: 168 h, 5 µM, time 7 day
[3] = molecular target: T1, Protein cereblon/Bromodomain-containing protein 9 (Homo sapiens, UniProt Q9H8M2+Q96SW2); assay: PROTAC activity at CRBN/BRD9 in human MV4-11 cells assessed as induction of BRD9 degradation at 10 nM by Western blot analysis relative to control; assay type: cell-based
Target sequence in this assay (Q96SW2 whole entry, looked up): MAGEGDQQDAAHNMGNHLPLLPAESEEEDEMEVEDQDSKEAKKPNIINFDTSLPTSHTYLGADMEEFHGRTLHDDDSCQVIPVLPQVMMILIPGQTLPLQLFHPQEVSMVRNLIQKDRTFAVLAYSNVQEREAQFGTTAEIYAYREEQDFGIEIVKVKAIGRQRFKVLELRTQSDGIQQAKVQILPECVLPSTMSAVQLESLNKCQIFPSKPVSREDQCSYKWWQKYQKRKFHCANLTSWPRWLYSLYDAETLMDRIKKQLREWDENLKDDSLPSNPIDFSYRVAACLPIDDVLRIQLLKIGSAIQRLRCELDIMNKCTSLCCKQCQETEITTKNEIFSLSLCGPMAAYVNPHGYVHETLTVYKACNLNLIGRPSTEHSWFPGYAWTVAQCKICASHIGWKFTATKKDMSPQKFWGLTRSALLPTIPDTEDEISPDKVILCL
Target sequence in this assay (Q9H8M2 whole entry, looked up): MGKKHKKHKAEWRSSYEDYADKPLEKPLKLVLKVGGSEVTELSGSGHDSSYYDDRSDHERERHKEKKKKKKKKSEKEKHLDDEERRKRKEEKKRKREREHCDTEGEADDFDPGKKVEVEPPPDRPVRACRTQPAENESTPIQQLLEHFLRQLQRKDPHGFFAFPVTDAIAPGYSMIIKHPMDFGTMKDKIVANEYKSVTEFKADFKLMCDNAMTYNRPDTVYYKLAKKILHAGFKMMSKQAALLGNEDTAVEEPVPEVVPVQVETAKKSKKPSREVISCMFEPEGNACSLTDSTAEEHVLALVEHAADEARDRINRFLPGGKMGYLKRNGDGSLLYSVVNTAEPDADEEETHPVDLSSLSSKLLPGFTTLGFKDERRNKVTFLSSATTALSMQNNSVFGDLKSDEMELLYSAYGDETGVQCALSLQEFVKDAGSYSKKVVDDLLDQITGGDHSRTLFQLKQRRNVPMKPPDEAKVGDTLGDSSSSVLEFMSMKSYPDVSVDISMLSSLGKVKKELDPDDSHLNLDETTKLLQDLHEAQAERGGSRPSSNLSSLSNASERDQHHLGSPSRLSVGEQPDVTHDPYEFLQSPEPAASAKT

[4] = molecular target: T1, Protein cereblon/Bromodomain-containing protein 9; assay: PROTAC activity at CRBN/BRD9 in human MV4-11 cells assessed as induction of BRD9 degradation at 100 nM by Western blot analysis relative to control; assay type: cell-based
Target sequence in this assay (Q96SW2 whole entry, looked up): as the sequence (Q96SW2 whole entry, looked up) above
Target sequence in this assay (Q9H8M2 whole entry, looked up): as the sequence (Q9H8M2 whole entry, looked up) above

MV4-11 [5] = assay: Antiproliferative activity against human MV4-11 cells assessed as inhibition of cell growth incubated for 7 days by MTS reagent based assay; assay type: functional; settings: MV4-11, 168 h
MV4-11 [6] = assay: Antiproliferative activity against CRBN knockout human MV4-11 cells assessed as inhibition of cell growth incubated for 7 days by MTS reagent based assay; assay type: functional; settings: MV4-11, 168 h
[7] = molecular target: T1, Protein cereblon/Bromodomain-containing protein 9; assay: PROTAC activity at CRBN/BRD9 in human MV4-11 cells assessed as induction of BRD9 degradation by Western blot analysis; assay type: cell-based
[8] = molecular target: T1, Protein cereblon/Bromodomain-containing protein 9; assay: PROTAC activity at CRBN/BRD9 in human MV4-11 cells assessed as induction of BRD9 degradation by measuring maximal efficacy by Western blot analysis relative to control; assay type: cell-based
Target sequence in this assay (Q96SW2 whole entry, looked up): as the sequence (Q96SW2 whole entry, looked up) above
Target sequence in this assay (Q9H8M2 whole entry, looked up): as the sequence (Q9H8M2 whole entry, looked up) above

[9] = molecular target: T1, Protein cereblon/Bromodomain-containing protein 9; assay: PROTAC activity at CRBN/BRD9 in human MV4-11 cells assessed as induction of BRD9 degradation at 0.33 nM measured within 2 hrs by Western blot analysis; assay type: cell-based
Target sequence in this assay (Q96SW2 whole entry, looked up): as the sequence (Q96SW2 whole entry, looked up) above
Target sequence in this assay (Q9H8M2 whole entry, looked up): as the sequence (Q9H8M2 whole entry, looked up) above

[10] = molecular target: T1, Protein cereblon/Bromodomain-containing protein 9; assay: PROTAC activity at CRBN/BRD9 in human MV4-11 cells assessed as induction of BRD9 degradation at 0.33 nM measured after 4 hrs by Western blot analysis relative to control; assay type: cell-based
Target sequence in this assay (Q96SW2 whole entry, looked up): as the sequence (Q96SW2 whole entry, looked up) above
Target sequence in this assay (Q9H8M2 whole entry, looked up): as the sequence (Q9H8M2 whole entry, looked up) above

[11] = molecular target: T1, Protein cereblon/Bromodomain-containing protein 9; assay: PROTAC activity at CRBN/BRD9 in human MV4-11 cells assessed as induction of BRD9 degradation at 0.33 nM in presence of MLN4924 by Western blot analysis; assay type: cell-based
Target sequence in this assay (Q96SW2 whole entry, looked up): as the sequence (Q96SW2 whole entry, looked up) above
Target sequence in this assay (Q9H8M2 whole entry, looked up): as the sequence (Q9H8M2 whole entry, looked up) above

MV4-11 [12] = assay: Induction of GSPT1 degradation in human MV4-11 cells at 0.1 to 100 nM by Western blotting analysis; assay type: cell-based; settings: dose 0.1-100 nM
MV4-11 [13] = assay: Induction of IKZF1 degradation in human MV4-11 cells at 1 to 100 nM by Western blot analysis; assay type: cell-based; settings: dose 1-100 nM
MV4-11 [14] = assay: Induction of BRD4 degradation in human MV4-11 cells at 100 nM by Western blot analysis; assay type: cell-based
MV4-11 [15] = assay: Induction of BRD7 degradation in human MV4-11 cells at 100 nM by Western blot analysis; assay type: cell-based
MV4-11 [16] = assay: Downregulation of BRD9 protein expression in human MV4-11 cells by proteomic analysis; assay type: functional, cell-based
MV4-11 [17] = assay: Downregulation of KHDC4 protein expression in human MV4-11 cells by proteomic analysis; assay type: functional, cell-based
MV4-11 [18] = assay: Induction of apoptosis in human MV4-11 cells assessed as viable cells at 0.01 nM incubated for 48 hrs by Annexin V-FITC/PI staining based flow cytometric analysis (reference value: 94.80 %); assay type: functional; settings: read-out: Activity
MV4-11 [19] = assay: Induction of apoptosis in human MV4-11 cells assessed as late apoptotic cells at 0.01 nM incubated for 48 hrs by Annexin V-FITC/PI staining based flow cytometric analysis (reference value: 0.91 %); assay type: functional
MV4-11 [20] = assay: Induction of apoptosis in human MV4-11 cells assessed as necrotic cells at 0.01 nM incubated for 48 hrs by Annexin V-FITC/PI staining based flow cytometric analysis (reference value: 0.07 %); assay type: functional
MV4-11 [21] = assay: Induction of apoptosis in human MV4-11 cells assessed as early apoptotic cells at 0.1 nM incubated for 48 hrs by Annexin V-FITC/PI staining based flow cytometric analysis (reference value: 4.22 %); assay type: functional
MV4-11 [22] = assay: Induction of apoptosis in human MV4-11 cells assessed as late apoptotic cells at 0.1 nM incubated for 48 hrs by Annexin V-FITC/PI staining based flow cytometric analysis (reference value: 0.91 %); assay type: functional
MV4-11 [23] = assay: Induction of apoptosis in human MV4-11 cells assessed as viable cells at 1 nM incubated for 48 hrs by Annexin V-FITC/PI staining based flow cytometric analysis (reference value: 94.80 %); assay type: functional; settings: read-out: Activity
MV4-11 [24] = assay: Induction of apoptosis in human MV4-11 cells assessed as necrotic cells at 1 nM incubated for 48 hrs by Annexin V-FITC/PI staining based flow cytometric analysis (reference value: 0.07 %); assay type: functional
MV4-11 [25] = assay: Induction of apoptosis in human MV4-11 cells assessed as early apoptotic cells at 10 nM incubated for 48 hrs by Annexin V-FITC/PI staining based flow cytometric analysis (reference value: 4.22 %); assay type: functional
MV4-11 [26] = assay: Induction of apoptosis in human MV4-11 cells assessed as late apoptotic cells at 10 nM incubated for 48 hrs by Annexin V-FITC/PI staining based flow cytometric analysis (reference value: 0.91 %); assay type: functional
SU-DHL-6 = assay: Antiproliferative activity against human SU-DHL-6 cells assessed as inhibition of cell growth incubated for 7 days by MTS reagent based assay; assay type: functional; settings: SU-DHL-6, 168 h
[27] = molecular target: T1, Protein cereblon/Bromodomain-containing protein 9; assay: In vivo PROTAC activity at CRBN/BRD9 in Balb/c nude mouse xenografted with human MV4-11 cells assessed as induction of BRD9 degradation in tumor at 20 mg/kg, ip administered once daily for 20 days by Western blot analysis; assay type: functional, organism-based; settings: time 20.0 day
MV4-11 [28] = assay: Antitumor activity against human MV4-11 cells xenografted in Balb/c nude mouse assessed as tumor growth inhibition at 20 mg/kg, ip administered once daily for 20 days relative to control; assay type: functional; settings: MV4-11, 480 h, time 20 day, read-out: TGI
Mus musculus = assay: Upregulation of C-myc expression in Balb/c nude mouse tumor xenografted with human MV4-11 cells at 20 mg/kg, ip administered once daily for 20 days by Western blot analysis; assay type: functional, organism-based; settings: time 20.0 day
OCI-Ly10 [29] = assay: Antitumor activity against human OCI-Ly10 cells xenografted in Balb/c nude mouse assessed as relative tumor volume at 30 mg/kg, po administered once daily for 18 days (reference value: 9.07 +/- 4.66); assay type: functional; settings: time 18 day
OCI-Ly10 [30] = assay: Antitumor activity against human OCI-Ly10 cells xenografted in Balb/c nude mouse assessed as test to control ratio at 30 mg/kg, po administered once daily for 18 days relative to control; assay type: functional; settings: time 18 day
OCI-Ly10 [31] = assay: Antitumor activity against human OCI-Ly10 cells xenografted in Balb/c nude mouse assessed as tumor mass at 30 mg/kg, po administered once daily for 18 days (reference value: 1.12 +/- 0.44 g); assay type: functional; settings: time 18 day
MV4-11 [32] = assay: Downregulation of beta-catenin expression level in human MV4-11 cells at 0.1 to 10 nM measured after 24 to 48 hrs by Western blot analysis; assay type: functional, cell-based; settings: dose 0.1-10 nM, time 24-48 hrs
MV4-11 [33] = assay: Downregulation of AXIN2 mRNA expression level in human MV4-11 cells at 0.1 to 10 nM measured after 24 to 48 hrs by qPCR analysis; assay type: functional, cell-based; settings: dose 0.1-10 nM, time 24-48 hrs

Question: Which results are given for `COc1cc(-c2cn(C)c(=O)c3ccccc23)cc(OC)c1CN1CCC(CN2CCC(c3ccc4c5c(cccc35)C(=O)N4C3CCC(=O)NC3=O)CC2)CC1` (stereo unspecified)?
Answer: Cmax [1]: 127 ng/mL; Activity [2]: Toxic; Activity [3]: 98.5%; Activity [4]: 95%; IC50 (MV4-11 [5]): 0.27 nM; IC50 (MV4-11 [6]): > 5000 nM; Activity [7]: Dose-dependent-effect; DC50 [7]: 0.016 nM; Emax [8]: 97%; Activity [9]: Active; Activity [10]: 92%; Activity [11]: Not active; Compound Functioned Through Ubiquitin-Proteasome System; Activity (MV4-11 [12]): inactive; Activity (MV4-11 [13]): Active; Moderate Degradation Observed; Activity (MV4-11 [14]): inactive; Activity (MV4-11 [15]): inactive; Activity (MV4-11 [16]): Active; Activity (MV4-11 [17]): Active; viability at 10 pM (MV4-11 [18]): 92%; Activity (MV4-11 [19]): 1.63%; Activity (MV4-11 [20]): 0.03%; Activity (MV4-11 [21]): 9.2%; Activity (MV4-11 [22]): 3.37%; viability at 0.001 µM (MV4-11 [23]): 80.4%; Activity (MV4-11 [24]): 0.06%; Activity (MV4-11 [25]): 16.97%; Activity (MV4-11 [26]): 8.01%; IC50 (SU-DHL-6): 375 nM; Activity [27]: Active; inhibition in vivo at 20 mg/kg (MV4-11 [28]): 30.9%; Activity (Mus musculus): Active; Activity (OCI-Ly10 [29]): 4; T/C (OCI-Ly10 [30]): ~40%; Activity (OCI-Ly10 [31]): 0.56 g; Activity (MV4-11 [32]): Active; Activity (MV4-11 [33]): Active
